Laboratory results as given in publication PMC6277767, “Broad and Region-Specific Impacts of the Synthetic Cannabinoid CP 55,940 in Adolescent and Adult Female Mouse Brains” (Frontiers in Molecular Neuroscience, 2018).

Test system: CD1 female mouse brain lipidome
Assay: Brain-region lipid levels (HPLC/MS/MS lipidomics) 2 h after single i.p. 3 mg/kg CP 55,940 vs vehicle
Type: in vivo
Design: N-arachidonoyl phenylalanine level, Mean / N-stearoyl tryptophan level, Mean / N-stearoyl proline level, Mean / N-stearoyl leucine level, Mean / N-stearoyl phenylalanine level, Mean / N-stearoyl serine level, Mean / N-stearoyl methionine level, Mean: unit: moles per gram
Procedure: The Bloomington Institutional Animal Care and Use Committee of Indiana University reviewed and approved the animal procedures. Female mice from the CD1 strain were utilized to match our study examining THC’s effects on the brain lipidome ([Leishman et al., 2018]). Mice were given a single i.p. injection of either 3 mg/kg CP or 1:1:18 cremophor:ethanol:saline vehicle (please refer to the section “3 mg/kg CP Is Relevant for Synthetic Cannabinoid Abuse and Has Stronger Effects on the Female Mouse Brain Lipidome During Adolescence” for a justification of dose and use of female mice). Three different age groups were given injections: PND 35 and PND 50 adolescents, and adult mice (PND 113). At least eight mice in each age group received CP and at least eight received vehicle. Matching the THC study time course ([Leishman et al., 2018]), mice were sacrificed via rapid decapitation 2 h after injection. Brains were immediately removed and flash-frozen in liquid nitrogen, and then stored at -80°C until dissections were performed. Brains were dissected on an ice-cold dissection plate into the following regions: STR, HIPP, CER, THAL, CTX, HYP, MID, and STEM. These abbreviations for these brain areas will be used exclusively when discussing the results generated by these specific dissections. Each dissected area was immediately placed in liquid nitrogen and then stored at -80°C until used for lipid extraction.
Tissue extracts were performed as previously described ([Bradshaw et al., 2006]; [Stuart et al., 2013]; [Raboune et al., 2014]; [Leishman et al., 2016a],[b], [2017], [2018]). First, samples were shock frozen in liquid nitrogen, weighed, and transferred to a centrifuge tube. The mass of the largest sample was multiplied by 50 to determine how many milliliters of HPLC-grade methanol (Fisher, Fair Lawn, NJ, United States) to add. Then, samples were spiked with 500 pmol deuterium-labeled NAGly (d8NAGly; Cayman Chemical, Ann Arbor, MI, United States). Samples were placed on ice in darkness for 2 h then individually homogenized and centrifuged at 19,000 × g for 20 min at 20°C. Supernatants were diluted with HPLC water (purified in house) to make a solution of 75% water, 25% supernatant. Lipids were partially purified on C18 solid phase extraction columns (Agilent, Palo Alto, CA, United States). A series of four elutions with 1.5 mL of 60%, 75%, 85%, and 100% methanol were collected ([Stuart et al., 2013]; [Leishman et al., 2016a],[b], [2018]).
As previously described ([Bradshaw et al., 2006]; [Tan et al., 2006]; [Smoum et al., 2010]; [Stuart et al., 2013]; [Tortoriello et al., 2013]; [Raboune et al., 2014]; [Leishman et al., 2016a],[b], [2017], [2018]), samples were analyzed using an Applied Biosystems API 3000 triple quadrupole mass spectrometer with electrospray ionization (Foster City, CA, United States). Using an Agilent XDB-C18 reversed phase analytical column and optimized mobile phase gradients, 20 μL from each elution were chromatographed. Two Shimadzu 10ADvp pumps (Columbia, MD, United States) provided the pressure for gradient elution. Mobile phase A: 20% methanol, 80% water (v/v) and 1 mM ammonium acetate (Sigma, St. Louis, MO, United States). Mobile phase B: 100% methanol, 1 mM ammonium acetate. Every method run began with 0% mobile phase B, reached 100% mobile phase B flowing at 0.2 mL/min, and gradually returned to 0% mobile phase B.
This screening library will be referred to as the lipidome when discussing data from this study. HPLC/MS/MS data were analyzed using Analyst software (Applied Biosystems) ([Bradshaw et al., 2006]; [Tan et al., 2006]; [Stuart et al., 2013]; [Tortoriello et al., 2013]; [Raboune et al., 2014]; [Leishman et al., 2016a],[b], [2017], [2018]). Chromatograms (Supplementary Figure 3) were generated by determining the retention time of analytes from the analytical column with a [M-1] or [M+1] parent peak and a fragmentation peak corresponding to the programmed values. […]

[1] = midbrain, PND 35 WT adolescent female mice, 3 mg/kg
[2] = striatum, PND 50, 3mg/kg CP 55,940 vs Veh
[3] = striatum, PND 50 female mice, 3mg/kg CP 55,940, mean

SMILES: CCCCCCC(C)(C)c1ccc([C@@H]2C[C@H](O)CC[C@H]2CCCO)c(O)c1 [CP 55,940]
- N-stearoyl GABA level, Mean [1]: 7.82E-12
- N-stearoyl alanine level, Mean [1]: 9.99E-12
- N-stearoyl ethanolamine level, Mean [1]: 1.75E-11
- N-stearoyl glycine level, Mean [1]: 2.16E-11
- N-stearoyl leucine level, Mean [1]: 1.07E-12
- N-stearoyl methionine level, Mean [1]: 2.71E-12
- N-stearoyl phenylalanine level, Mean [1]: 2.34E-12
- N-stearoyl proline level, Mean [1]: 3.86E-13
- N-stearoyl serine level, Mean [1]: 3.54E-11
- N-stearoyl tryptophan level, Mean [1]: 7E-13
- N-stearoyl tyrosine level, Mean [1]: 2.3E-13
- Oleic acid level, Mean [1]: 1.55E-09
- PGE2 level, Mean [1]: 5.98E-10
- PhosphoLEA level, Mean [1]: 1.57E-11
- 2-arachidonoyl glycerol, Direction (relative to Veh) [2]: ↓
- 2-arachidonoyl glycerol, Magnitude (x Veh level) [2]: 0.86 x Veh level
- 2-linoleoyl glycerol Direction (relative to Veh) [2]: ↓
- 2-linoleoyl glycerol Magnitude (x Veh level) [2]: 0.77 x Veh level
- Arachidonic acid, Direction (relative to Veh) [2]: ↓
- Arachidonic acid, Magnitude (x Veh level) [2]: 0.81 x Veh level
- Linoleic acid, Direction (relative to Veh) [2]: ↓
- Linoleic acid, Magnitude (x Veh level) [2]: 0.78 x Veh level
- N-arachidonoyl GABA Direction (relative to Veh) [2]: ↓
- N-arachidonoyl GABA Magnitude (x Veh level) [2]: 0.71 x Veh level
- N-arachidonoyl glycine Direction (relative to Veh) [2]: ↓
- N-arachidonoyl glycine Magnitude (x Veh level) [2]: 0.65 x Veh level
- N-arachidonoyl phenylalanine, Direction (relative to Veh) [2]: ↓
- N-arachidonoyl phenylalanine, Magnitude (x Veh level) [2]: 0.78 x Veh level
- N-arachidonoyl taurine Direction (relative to Veh) [2]: ↓
- N-arachidonoyl taurine Magnitude (x Veh level) [2]: 0.91 x Veh level
- N-docosahexaenoyl GABA Direction (relative to Veh) [2]: ↓
- N-docosahexaenoyl GABA Magnitude (x Veh level) [2]: 0.81 x Veh level
- N-docosahexaenoyl glycine Direction (relative to Veh) [2]: ↓
- N-docosahexaenoyl glycine Magnitude (x Veh level) [2]: 0.51 x Veh level
- N-palmitoyl leucine, Direction (relative to Veh) [2]: ↑
- N-palmitoyl leucine, Magnitude (x Veh level) [2]: 1.33 x Veh level
- N-palmitoyl tyrosine Magnitude (x Veh level) [2]: 1.35 x Veh level
- N-palmitoyl tyrosine, Direction (relative to Veh) [2]: ↑
- N-palmitoyl valine Direction (relative to Veh) [2]: ↑
- N-palmitoyl valine Magnitude (x Veh level) [2]: 1.72 x Veh level
- Oleic acid, Direction (relative to Veh) [2]: ↓
- Oleic acid, Magnitude (x Veh level) [2]: 0.79 x Veh level
- PGF2α Direction (relative to Veh) [2]: ↑
- PGF2α Magnitude (x Veh level) [2]: 1.16 x Veh level
- 2-arachidonoyl-sn-glycerol level [3]: 1.35E-10
- 2-linoleoyl-sn-glycerol level [3]: 8.22E-11
- 2-oleoyl-sn-glycerol level [3]: 9.26E-10
- 2-palmitoyl-sn-glycerol level [3]: 1.09E-09
- 11-OH-THC level [3]: BDL
- 11-nor-9-carboxyTHC level [3]: BDL
- Arachidonic acid level [3]: 2.35E-10
- Cannabidiol level [3]: BDL
- Linoleic acid level [3]: 1.59E-10
- N-arachidonoyl GABA level [3]: 4.29E-12
- N-arachidonoyl dopamine level [3]: BDL
- N-arachidonoyl ethanolamine level [3]: 2.93E-11
- N-arachidonoyl glycine level [3]: 5.51E-13
- N-arachidonoyl phenylalanine level [3]: 3.83E-13
- N-arachidonoyl proline level [3]: BDL
- N-arachidonoyl taurine level [3]: 2.53E-11
- N-arachidonoyl tryptophan level [3]: BDL
- N-docosahexaenoyl GABA level [3]: 4.96E-13
- N-docosahexaenoyl ethanolamine level [3]: 3.09E-11
- N-docosahexaenoyl glycine level [3]: 1.15E-13
- N-docosahexaenoyl leucine level [3]: 1.19E-13
- N-docosahexaenoyl methionine level [3]: BDL
- N-docosahexaenoyl phenylalanine level [3]: 4.38E-13
- N-docosahexaenoyl proline level [3]: BDL
- N-docosahexaenoyl tryptophan level [3]: BDL
- N-docosahexaenoyl valine level [3]: BDL
- N-linoleoyl alanine level [3]: 1.36E-13
- N-linoleoyl ethanolamine level [3]: 5.34E-11
- N-linoleoyl glycine level [3]: 6.89E-14
- N-linoleoyl leucine level [3]: 4.43E-14
- N-linoleoyl proline level [3]: BDL
- N-linoleoyl serine level [3]: 1.09E-10
- N-linoleoyl tryptophan level [3]: BDL
- N-linoleoyl tyrosine level [3]: BDL
- N-nervonoyl valine level [3]: BDL
- N-oleoyl GABA level [3]: 1.25E-12
- N-oleoyl alanine level [3]: 1.2E-12
- N-oleoyl dopamine level [3]: BDL
- N-oleoyl ethanolamine level [3]: 6.94E-11
- N-oleoyl glycine level [3]: 1.27E-12
- N-oleoyl leucine level [3]: 4.16E-13
- N-oleoyl methionine level [3]: 3.74E-13
- N-oleoyl phenylalanine level [3]: 5.89E-13
- N-oleoyl proline level [3]: BDL
- N-oleoyl serine level [3]: 2.17E-10
- N-oleoyl tryptophan level [3]: BDL
- N-oleoyl tyrosine level [3]: 1.31E-13
- N-palmitoyl GABA level [3]: 3.11E-12
- N-palmitoyl alanine level [3]: 4.63E-12
- N-palmitoyl ethanolamine level [3]: 6.26E-11
- N-palmitoyl glycine level [3]: 5.26E-12
- N-palmitoyl leucine level [3]: 1.06E-12
- N-palmitoyl methionine level [3]: 1.12E-12
- N-palmitoyl phenylalanine level [3]: 9.78E-13
- N-palmitoyl proline level [3]: BDL
- N-palmitoyl serine level [3]: 2.18E-11
- N-palmitoyl tryptophan level [3]: BDL
- N-palmitoyl tyrosine level [3]: 4.79E-13
